From patent EP1288203A1, “Cyclic nitrones and pharmaceutical compositions containing them” (Aventis Pharmaceuticals Inc., priority 1995, dated 1997)
Read-outs that look alike come from different tables or passages of the source.

Key:
cerebellar granule cells = assay: Protection of cerebellar granule cells against Fe2+-induced oxidative damage; format: cell-based, rats; conditions: Rattus norvegicus, 100 µM ferrous chloride
Experimental: The cyclic nitrones were tested for their ability to protect primary cultures of cerebellar granule cells against oxidative injury induced by treatment with Fe^2+. Cerebellar granule cell cultures were prepared from 8 day old rats as previously described. Levi, G., Aloisi, F., Ciotti, M.T., Thangnipon, W., Kingsbury, A., and Balazs, R. (1989) In: A Dissection and Tissue Culture Manual of the Nervous System (Shahar, A., de Vellis, J., Vernadakis, A., and Haber, B., eds.) Alan R. Liss, Inc. New York, NY, pp. 211-214. Briefly, 8-10 cerebella were removed and placed in a Crebs-Ringer bicarbonate medium supplemented with BSA and MgSO4. Cerebella were finely chopped and digested with a trypsin/Krebs-Ringer solution. Cells were then dispersed by trituration in Krebs-Ringer containing DNase, MgSO4 and trypsin inhibitor followed by plating at a density of 1x10^6 cells/well in poly-1-lysine coated plate in MEM/10% fetal bovine serum/KCl/glutamine/gentamicin. Media was replaced at 24 hours and cytosine arabinoside added. Experiments were conducted with cells 8-10 days in vitro.
For oxidation studies the media was removed and replaced with Na^+ free Locke's solution (154.6 mM N-methyl-D-glucamine, 5.6 mM KCl, 2.3 mM CaCl2, 1 mM MgCl2, 3.6 mM NaHCO3, and 5 mM HEPES, pH 7.3) with the omission of glucose. The nitrones were added in either Locke's solution or in 20% β-cyclodextrins and allowed to incorporate into the cells for 30 min. At this time 20 µl of a 5 mM stock solution of ferrous chloride was added for a final concentration of 100 µM. After 45 min the media was removed and added to 1.5 ml of TBA/TCA (2:1) with 25 µl of 2% BHT and TBARS determined as described above. The absorbance of the control cells (no iron) was subtracted from the iron treated cells and this value taken as the denominator to determine the concentration of nitrone required to inhibit oxidation by 50%.
Fresh MEM media was added to the cells along with 100 µl of MTT. After 4 hrs, 1 ml of cold isopropanol/0.04 N HCl was added, the cells scraped, mixed well and transferred to 13 x 100 mm glass test tubes. The absorbance resulting from mitochondrial reduction of the MTT (570 nm minus 630 nm) was measured as an assessment of viability. The % cell death was determined by comparison to the absorbance of cells to which no iron was added. The difference between the iron-treated and control cells was taken as 100% and the concentration of nitrone to prevent the loss of MTT reduction capability (expressed in Table II as viability) by 50% was used as the IC50.

[1] = Hydroxyl radical trapping (inhibition of the •OH-dependent bleaching of p-NDA); format: biochemical; conditions: IC50 for hydroxyl radical trapping in vitro
Experimental: Cyclic nitrones were evaluated for •OH trapping activity by a variety of tests. The primary assay was dependent upon the ability of the compounds to inhibit the •OH-dependent bleaching of p-NDA. Bors, W., Michel, C., and Saran, M. (1979) J. Biochem. 95, 621-627. The p-NDA was prepared at 1 mM in 50 mM NaCl, pH 7.0. The hydroxyl radical was generated using Fenton chemistry (Fe^2+/H2O2). FeCl2 is dissolved in N2 purged, double distilled H2O to a final concentration of 2.5 mM. H2O2 was prepared from a 30% stock solution (8.8 M) at 1.25 mM in the buffer. Test compounds were solubilized in buffer or ethanol at a concentration of 1 M or 5 M, depending upon solubility.
Assay mixtures in glass cuvettes contained solutions of 0.02 ml of H2O2, 0.02 ml of test compound, 0.10 ml of p-NDA and 50 mM NaCl, pH 7.0 to a final volume of 0.98 ml. The oxidation was initiated by the addition of 0.02 ml of Fe^2+ and the bleaching of p-NDA was monitored as the loss in absorbance at 440 nm for 100 sec. To generate concentration curves, serial dilutions of the test compounds were made such that a constant volume of 0.02 ml was added to the reaction mixture. Ethanol itself is an •OH trap, thus controls contained an equal volume of ethanol for any test compound requiring this vehicle. […]

[2] = Sedation after administration in rats; conditions: high doses in rats
[3] = 0.75 h, 45 min, TBARS in media, read-out: TBARS IC50
[4] = IC50 for preventing loss of MTT reduction capability, read-out: Viability

For `CC1(C)Cc2ccc3ccccc3c2C=[N+]1[O-]` [Compound 10, 3,3-Dimethyl-3,4-dihydrobenzo[h]isoquinoline N-oxide], the IC50 (cerebellar granule cells; [3]) was 104 µM and the IC50 (cerebellar granule cells; [4]) was 103 µM.

In the case of `CC1(C)Cc2sccc2C=[N+]1[O-]` [Compound 18, 6,6-Dimethyl-6,7-dihydrothieno[3,2-c]pyridine N-oxide], the IC50 (cerebellar granule cells; [3]) is reported as 2600 µM and the IC50 (cerebellar granule cells; [4]) is reported as 880 µM.

For `CC1(C)Cc2ccoc2C=[N+]1[O-]` [Compound 23, 5,5-Dimethyl-4,5-dihydrofuro[2,3-c]pyridine N-oxide], the “OH RADICAL TRAPPING” value [1] was “no effect at 20 mM”.

In the case of `CC1(C)Cc2ccccc2C=[N+]1[O-]` [Compound A, 3,4-dihydro-3,3-dimethylisoquinoline N-oxide, reference compound], the sedation [2] is reported as “causes sedation”, the IC50 (cerebellar granule cells; [3]) is reported as 307 µM and the IC50 (cerebellar granule cells; [4]) is reported as 292 µM.
